# Assays:
# [1] = system: MX-1 Human Breast Carcinoma Xenograft; experiment: In vivo evaluation of oral administration against MX-1 breast carcinoma xenograft
# Procedure: In Vivo Evaluation of the Oral Administration of Antitumor Compounds Against the MX-1 Human Breast Carcinoma Xenograft
# The compounds were prepared in the following vehicle: 90% saline, 5% Cremophor, and 5% ethanol.
# [2] = system: blood cell populations; experiment: Effect of oral treatment on blood cell populations, body weight and tumor weight in the MX-1 study; assay type: in vivo, nu/nu mice; details: Group 3: 73 mg/kg single oral bolus
# Procedure: Antitumor compounds were administered orally in a study to investigate whether such formulations are efficacious against the MX-1 human breast carcinoma xenograft. The compounds were prepared in the following vehicle: 90% saline, 5% Cremophor, and 5% ethanol. Antitumor compound 1771 was formulated as described for Solution 1 in Example 6. Antitumor compound 1781 was formulated as described for Solution 2 in Example 6.
# Female nu/nu mice (11-12 weeks of age; implanted subcutaneously with 1 mm^3 MX-1 human breast carcinoma fragments in the flank) were sorted into one control (n=10) and two treatment (n=6) groups (group mean tumor size of 47-49 mg). Treatment groups are detailed in Table 14.
# In addition to survival and tumor regression responses, the effect of treatment on blood cell populations was assessed. The major effect of these antitumor compounds on blood cell populations was a marked reduction in the neutrophil cell number. Monocyte depletion correlated fairly well with neutrophil reduction for each antitumor compound. […] There was a correlation between antitumor activity and reduced neutrophil count. In general, toxicity (as determined by neutrophil depletion) and weight loss correlated with efficacy. Importantly, the toxicities observed with the very efficacious antitumor compounds were manageable and reversible; neutrophil count and body weight rebounded from their nadirs in just a few days. Table 15 summarized the weight reduction, neutrophil and monocyte measurements on Day 4, with tumor weight reduction calculated at Day 18: Table 15
# [3] = system: SK-MES carcinoma
# Procedure: In Vivo Evaluation of Antitumor Compounds Against Human Lung Carcinoma Xenografts
# The compounds were prepared in the manner as described for Solution 2 of Example 10. Taxol (paclitaxel, Bristol Meyers Squibb), used as a control, was obtained as the marketed pharmaceutical drug.
# Taxol itself was given as a split i.v. dose of 36 mg/kg, with the two 18 mg/kg doses separated by one hour. Vehicle control animals were dosed twice intravenously with half the total volume being given separated by one hour. The study was terminated on Day 60.
# The results are summarized in Table 1 and include mean days of survival (MDS), number of toxic deaths, number of survivors, number of complete or partial responses, and number with stable disease. The mean days of survival is the number of days after which a SKMES neoplasm reached a size of 1.5 g and the animal was euthanized. A complete response is obtained if the tumor is not palpable at the end of the study. A partial response is obtained if the tumor shrinks to a size smaller than its size on Day 1 of the study.
# A tumor scoring system was designed to provide a more quantitative ranking of efficacy (therapeutic potential) among the antitumor agents evaluated against the different human solid tumor xenografts. Each mouse in a study was given a score of from 1 to 10 at the end of the study. The scores can be summarized as follows:
# The individual score for each mouse was averaged into a mean score for each treatment group. […]
# [4] = Group 3: 73 mg/kg single oral bolus Day 1, 6 mice, study to Day 63
Compound,"Mean Day of Survival (n) ([1]; Group 3: 73 mg/kg single oral bolus Day 1, 6 mice, n=5, 1.5 g endpoint, study to Day 63)","Maximum Weight Loss (Day) ([1]; Group 3: 73 mg/kg single oral bolus Day 1, 6 mice, on Day 5)","Complete Response [1, 4]","Partial Response [1, 4]","Stable Disease [1, 4]","Toxic Deaths [1, 4]","survival versus vehicle controls ([1]; single oral bolus Day 1, for 1771 the other two mice of the group)",Monocytes (K/µL) ([2]; Day 4),Neutrophils (K/µL) ([2]; Day 4),"% Reduction (Neutrophils) ([2]; Day 4, vs vehicle) [%]","Weight ([2]; MX-1 tumor weight, Day 18) [mg]","% Reduction (Weight) ([2]; tumor weight reduction calculated at Day 18, vs vehicle) [%]",survival extension compared to vehicle controls ([3]; Taxol 36 mg/kg i.v.) [%],"MDS (n) ([3]; mean days of survival until tumor 1.5 g, i.v. split dose qd x 1, Taxol 36 mg/kg, 1755 49 mg/kg, six mice per group)","Toxic Deaths ([3]; number of mice of six, i.v. split dose qd x 1, Taxol 36 mg/kg, 1755 49 mg/kg)","Survivors ([3]; number of mice of six, study ended Day 60)","Stable Disease ([3]; number of mice of six, tumor below 1.5 g at end of study)","Complete Response ([3]; number of mice of six, tumor not palpable at end of study)","Partial Response ([3]; number of mice of six, tumor smaller than on Day 1)","Mean Score ([3]; tumor score 1 to 10 per mouse, averaged per group (10 = complete response))"
CCOC(=O)O[C@H]1C(=O)[C@@]2(C)[C@H]([C@H](OC(=O)c3ccccc3)[C@]3(O)C[C@H](OC(=O)[C@H](O)[C@H](C=C(C)C)NC(=O)OC(C)(C)C)C(C)=C1C3(C)C)[C@]1(OC(C)=O)CO[C@@H]1C[C@@H]2O [Compound 1781],33.3 ± 2.9 (5),-9.4% (5),0,0,1,0,significant survival extensions,0.101,0.117,87.2,275.3,68.3,,,,,,,,
CC(=O)O[C@H]1C(=O)[C@@]2(C)[C@H]([C@H](OC(=O)c3ccccc3)[C@]3(O)C[C@H](OC(=O)[C@H](O)[C@@H](NC(=O)c4ccccc4)c4ccccc4)C(C)=C1C3(C)C)[C@]1(OC(C)=O)CO[C@@H]1C[C@@H]2O [Taxol],,,,,,,,,,,,,30,16 ± 2.0 (6) days,0,0,0,0,0,1.3 ± 0.3

# — EP1285919A1, “C10 Carbonate substituted taxanes as antitumor agents” (Florida State University Research Foundation, Inc., priority 2001, dated 2003)
